How the values were obtained:
Type in all cases: physicochemical
[1] = Reaction of CAP compound with water (hydrolysis rate, stability in water)
Procedure: (§1) In a typical experiment, an aliquot of the stock solution of CAP1-a in water was added to nucleophile in PIPES buffer or water. The progress of the reaction was monitored by UV-Vis spectrometer at suitable wavelength. The pseudo first order reaction rate constant was determined by plotting the ln value of the concentration of CAP1-a against the reaction time. The pseudo first order reaction rate constant thus obtained was plotted against the concentration of the nucleophile. The slope of this linear correlation is the second order reaction rate constant. CAP1-a was reacted separately with GSH, cysteine, N-acetylcysteine, and phenol.
On the other hand, the reaction between CAP4 and water is very slow, showing a k2 of only 4.8−10^−6 M^−1·S^−1 at 25° C. and pH 7 in 50 mM PIPES.

[2] = Second order reaction rate constant of CAP compound with GSH (UV-Vis kinetics)
Procedure: as §1
Following the study above, compounds CAP1-F, CAP2, and CAP4 each were reacted with either GSH or phenol in water or 50 mM PIPES at pH 7.
In another study, compounds CAP1-b, CAP1-F, CAP2, CAP3, CAP4, and CAP5 each were reacted with either GSH in a 50 mM PIPES and 150 mM KCl aqueous solution at pH 7 and 25° C. […] The reaction between CAP5 and GSH has a k2 as high as 3.2×10^5 M^−1·S^−1, 7×10^9 folds faster than its reaction with water under the same conditions. […] S^−1.

[3] = Second order reaction rate constant of CAP compound with cysteine (UV-Vis kinetics); details: similar reaction conditions (25° C., pH 7, 50 mM PIPES)
Procedure: as §1

[4] = Stability in D2O observed by 1H NMR; details: r.t.
Excerpt: 1H NMR (400 MHz, D2O) δ 8.08−7.98 (m, 2H), δ 7.92−7.85 (m, 2H), 4.41 (s, 6H), 3.75 (s, 3H).

[5] = 50 mM PIPES and 150 mM KCl aqueous solution, pH 7, 25° C.

## C[n+]1ccccc1F.[I-] [CAP1-a, N-methyl-2-fluoropyridinium iodide]
[1]; CAP1-a and water
  second order reaction rate constant (k2), reaction with water: 4.5×10^−6 M^−1 S^−1
[1]; inferred from slow reaction with water
  stability in water (in words): high stability
[2]; 25° C., pH 7, 50 mM PIPES
  second order reaction rate constant (k2), reaction with GSH: 1.2×10^2 M^−1·S^−1
[3]
  second order reaction rate constant (k2), reaction with cysteine: 2.8×10^2 M^−1·S^−1

## C[n+]1ccccc1F [CAP1-b, N-methyl-2-fluoropyridinium tetrafluoroborate]
[2]; [5]
  second order reaction rate constant (k2), reaction with GSH: 1.2×10^2 M^−1·S^−1

## C[n+]1ccc(S(C)(=O)=O)cc1 [CAP3, N-Methyl-4-(methylsulfonyl)pyridinium tetrafluoroborate]
[2]; [5]
  second order reaction rate constant (k2), reaction with GSH: 9.8×10^3 M^−1·S^−1

## C[n+]1ccccc1S(C)(=O)=O [CAP4, N-methyl-2-(methylsulfonyl)pyridinium tetrafluoroborate]
[2]; [5]
  second order reaction rate constant (k2), reaction with GSH: 1.2×10^5 M^−1·S^−1
[2]; 25° C., pH 7, 50 mM PIPES
  second order reaction rate constant (k2), reaction with GSH: 5.3×10^4 M^−1·S^−1

## C[n+]1c(Cl)cccc1S(C)(=O)=O [CAP5, 2-Chloro-1-methyl-6-(methylsulfonyl)pyridin-1-ium tetrafluoroborate]
[2]; [5]
  second order reaction rate constant (k2), reaction with GSH: 3.2×10^5 M^−1·S^−1

## Cn1c(S(C)(=O)=O)[n+](C)c2ccccc21 [CAP23, 1,3-dimethyl-2-(methylsulfonyl)-1H-benzo[d]imidazol-3-ium tetrafluoroborate]
[4]
  stability in D2O: moderate stability
  time after which the compound is completely hydrolyzed in D2O: 12 h
